For one assay, the target named is T1, PCSK9-D374Y (Homo sapiens, UniProt Q8NBP7, D374Y).
T1 construct: host or cells: HepG2 cells (the protein is added from outside; LDLR is endogenous)
As to the kind of experiment: LDL uptake in HepG2 cells treated with PCSK9-D374Y (cell-based assay). Conditions: HepG2 cells with PCSK9-D374Y (2 μg/ml), 16 hours, Bodipy FL LDL 4 hours, FIG. 3. How it is done: Human liver cells (hepG2) express the LDL receptor, which can take up fluorescent-labeled LDL into the cell. PCSK9 binds to LDL receptor, wherein the complex is internalized and degraded in the lysosome, resulting in lowered LDL uptake in hepG2 cells. Inhibition of PCSK9 […] lowers plasma (circulating) LDL-C by increasing LDL incorporation into the cell.
The cell-based assay was conducted as follows, according to the procedure outlined in Xu and Liu, J Bioequiv Availab 2013, 5, 7. […] Human liver HepG2 cells were seeded in a 96 well plate at 2×10^5 cells/ml and incubated overnight. PCSK9-D374Y (2 μg/ml) was added, along with test compounds. The wells were incubated for 16 hours, whereupon the medium was replaced with fresh medium containing 10 μg/ml Bodipy FL LDL, and the wells were incubated for a further 4 hours. The wells were washed using warm PBS and then the LDL uptake was quantified on a fluorescent plate reader at excitation/emission wavelengths of 485 and 530 nm respectively.
FIG. 2 indicates the decrease in LDL update in HepG2 cells comparing untreated and PCSK9-D374Y gain-of-function treated cells. Test compounds were measured at their ability to increase LDL uptake at concentrations of 0.1 and 1 μM and the results shown in FIG. 3.

In assay [1] the target is T2, PCSK9 and the LDL receptor (Homo sapiens, UniProt Q8NBP7).
T2 construct: purchased CircuLex CY-8150
T2 sequence (Q8NBP7 153-692): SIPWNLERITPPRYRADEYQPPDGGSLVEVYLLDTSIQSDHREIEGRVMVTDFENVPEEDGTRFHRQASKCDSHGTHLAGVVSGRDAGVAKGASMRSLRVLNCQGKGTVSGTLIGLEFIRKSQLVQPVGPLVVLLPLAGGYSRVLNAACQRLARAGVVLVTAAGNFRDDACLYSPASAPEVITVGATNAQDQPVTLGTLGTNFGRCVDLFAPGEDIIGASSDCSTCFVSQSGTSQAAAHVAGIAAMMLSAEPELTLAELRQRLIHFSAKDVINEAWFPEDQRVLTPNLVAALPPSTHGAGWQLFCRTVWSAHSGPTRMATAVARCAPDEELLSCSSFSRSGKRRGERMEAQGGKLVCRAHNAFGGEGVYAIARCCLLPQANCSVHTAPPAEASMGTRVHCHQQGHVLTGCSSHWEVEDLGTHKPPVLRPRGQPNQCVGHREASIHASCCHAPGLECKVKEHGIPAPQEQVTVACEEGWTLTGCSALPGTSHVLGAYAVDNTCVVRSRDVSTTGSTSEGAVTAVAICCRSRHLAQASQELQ
T2 sequence (Q8NBP7 31-152 partner limits assumed): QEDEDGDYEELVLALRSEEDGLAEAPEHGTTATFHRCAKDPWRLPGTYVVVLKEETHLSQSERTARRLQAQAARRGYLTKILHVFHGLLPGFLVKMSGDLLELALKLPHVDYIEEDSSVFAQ
As to the kind of experiment: CircuLex PCSK9-LDLR in vitro binding assay. The following applies: His-tagged PCSK9 wild type, 8 point concentration curves, absorbance 450 nm and 540 nm, read-out: Inhibition of PCSK9-LDLR binding. How it is done: Compounds were assayed for their ability to inhibit the binding between PCSK9 and the LDL receptor using a CircuLex PCSK9-LDLR in vitro binding assay kit (Catalog #CY-8150. The procedure employed the reagents and buffers included in the kit as follows.
88 μL of 1× reaction buffer were placed into each well. 5 μL of test compounds in 20% DMSO were added into each well. 10 mM solutions of test compounds in DMSO were diluted by 3-fold series to give 8 point concentration curves. The compounds were then diluted 20-fold with the reaction buffer. To each well was then added 7 μL of His-tagged PCSK9 wild type solution (1000 ng/mL) into each well. The plate was then covered with a plate sealer and incubated at room temperature for 3 hours, shaking at 300 rpm on an orbital microplate shaker. The test solutions were washed 4 times with 350 μL wash buffer. 100 μL of biotinylated anti-His-tag monoclonal antibody was added to each well. The plate was covered with a plate sealer, and incubated at room temperature for 1 hour, shaking at 300 rpm. The test solutions were washed 4 times with 350 μL wash buffer. 100 μL of HRP-conjugated streptavidin was added to each well. The plate was covered with a plate sealer, and incubated at room temperature for 20 min, shaking at 300 rpm.
The test solutions were washed 4 times with 350 μL wash buffer. 100 μL of substrate reagent were added into each well. The plate was covered with a plate sealer, and incubated at room temperature for 15 min, shaking at 300 rpm. Finally, 100 μL of the stop solution was added to each well in the same order as the previously added substrate reagent. Absorbance was measured at 450 nm and 540 nm and IC50 curves were plotted.

T1 sequence (Q8NBP7 153-692 D374Y): as the sequence (Q8NBP7 153-692) above, with D222Y counted along it
T1 sequence (Q8NBP7 31-152 partner limits assumed): as the sequence (Q8NBP7 31-152 partner limits assumed) above

Regarding `Cc1cn(-c2cc(CN3CCC[C@H](N)C3)cc(NC(=O)c3ccc(C)c(Oc4ccccc4)c3)c2)cn1` [Example 30, (S)—N-(3-((3-aminopiperidin-1-yl)methyl)-5-(4-methyl-1H-imidazol-1-yl)phenyl)-4-methyl-3-phenoxybenzamide], the “increase of LDL uptake” value on PCSK9-D374Y (0.1 μM compound) and at PCSK9-D374Y (1 μM compound) was “Significant increases in LDL uptake equivalent to untreated cells” in each case. In addition, the IC50 in assay [1] fell in the range of 0.1 to 1 µM.
For `Cc1cn(-c2cc(NC(=O)c3ccc(C)c(Oc4cccc5ccncc45)c3)cc(N3CCN(C)CC3)c2)cn1` [Example 27, 3-(isoquinolin-8-yloxy)-4-methyl-N-(3-(4-methyl-1H-imidazol-1-yl)-5-(4-methylpiperazin-1-yl)phenyl)benzamide], the “increase of LDL uptake” value at PCSK9-D374Y (0.1 μM compound) and at PCSK9-D374Y (1 μM compound) was “Significant increases in LDL uptake equivalent to untreated cells” each time. Further, in assay [1], the IC50 is under 0.1 µM.
Consider `Cc1ccc(C(=O)Nc2cccc(C(F)(F)F)c2)cc1Nc1nccc(-c2cccnc2)n1` [Example 17, 4-methyl-3-((4-(pyridin-3-yl)pyrimidin-2-yl)amino)-N-(3-(trifluoromethyl)phenyl)benzamide], for which the IC50 in assay [1] is over 100 µM.
As for `Cc1ccc(C(=O)Nc2cc(N3CCN(C)CC3)cc(-n3cnc(C)c3)c2)cc1` [Example 24, 4-methyl-N-(3-(4-methyl-1H-imidazol-1-yl)-5-(4-methylpiperazin-1-yl)phenyl)benzamide], the IC50 in assay [1] was 10 to 100 µM.
In the case of `Cc1cn(-c2cc(CN3CCC[C@H](N)C3)cc(NC(=O)c3ccc(C)c(Nc4nccc(-c5ccc(F)cc5)n4)c3)c2)cn1` [Example 19, (S)—N-(3-((3-aminopiperidin-1-yl)methyl)-5-(4-methyl-1H-imidazol-1-yl)phenyl)-3-((4-(4-fluorophenyl)pyrimidin-2-yl)amino)-4-methylbenzamide], in assay [1], the IC50 lay within 0.1 to 1 µM.
In the case of `Cc1cn(-c2cc(CCS(N)(=O)=O)cc(NC(=O)c3ccc(C)c(Nc4nccc(-c5ccccc5)n4)c3)c2)cn1` [Example 10, 4-methyl-N-(3-(4-methyl-1H-imidazol-1-yl)-5-(2-sulfamoylethyl)phenyl)-3-((4-phenylpyrimidin-2-yl)amino)benzamide], the IC50 in assay [1] is 10 to 100 µM.

These data come from patent US11897868B2, “Heterocyclic inhibitors of PCSK9” (CARDIO THERAPEUTICS PTY LTD, priority 2017, dated 2024).
